Results on 1 molecule are retold here after patent publication US20200390889A1, “REMOTELY TRIGGERED THERAPY” (Bambu Vault LLC, priority 2019, published 2020).

The test system of data set [1] is MDA-MB-415. The following applies: MDA-MB-415, ER+ breast cancer cells; Hu et al. 2018; cited from earlier work.
For data set [2], the system named is MDA-MD-468. The following applies: MDA-MD-468, ER-PR-HER2- cells; Hu et al. 2018; cited from earlier work.
Data set [3] deals with T47D. The settings on record: ER+ breast cancer cells, Hu et al. 2018; cited from earlier work.
The nature of data set [4]: Percentage of curcumin and Epolight IR 1117 loading / encapsulation determination. The class given is physicochemical. The following applies: in B-805 PMMA/BMA particles made by Example 13(b). As for the experimental part:
The UV-VIS-NIR absorbance spectrum of the IR absorbing agent and/or the drug is measured using Shimadzu UV-3600 UV-VIS-NIR Spectrophotometer. The concentration of the IR absorbing agent in the particles is determined from application of Beer's law.

In data set [5] the test system is MCF7. The following applies: MCF7, ER+ breast cancer cells; Hu et al. 2018; cited from earlier work.
For data set [6], the system named is MDA-MB-231. The following applies: MDA-MB-231, ER-PR-HER2- cells; Hu et al. 2018; cited from earlier work.
The nature of data set [7]: Laser triggered drug release from particles in gelatin. Format: physicochemical. The following applies: PMMA beads with 25% VTMS shells in gelatin; Q-switched Lutronic laser 1064 nm, 2.46-5.09 J/cm^2. The method, then:
Procedure: A solution of gelatin was prepared by adding Knox gelatin (1.0 g) to cold water (12.5 g) in a 100 mL glass jar equipped with a magnetic stir bar. The gelatin was stirred 15-30 minutes and then hot water was added (70° C.) until the total weight was 50.0 g. This gelatin was then used in 2.0 gm aliquots. Drug loaded PMMA beads with 25% VTMS shells as prepared in Example 1b above (20-30 mg) were then added to the gelatin solution (2.0 g) and vortexed mixed in a 4 dram vial. The suspension of the tattoo particles in gelatin was then sonicated for 15-30 minutes before transferring to a 5 cm plastic culture dish. The gelatin suspension was spread evenly and allowed to set. It was then covered and placed in a refrigerator a 6° C. until ready for laser exposure.
Laser exposure was accomplished as follows: The cover for the culture dish was removed and a 5 cm clear plastic cover was cut and fit over the gelatin to prevent splatter. The top surface was then completely lasered at 1064 nm with a 5 mm spot using fluences ranging from 2.46 J/cm^2 to 5.09 J/cm^2 using Q-switched Lutronic laser.
After lasering the top surface the culture dish was covered with its lid, turned over and lasered from the opposite side to reach any unexposed beads visible only from the bottom side.
The standard fluence for tattoo removal is 3.51 J/cm^2. […]

Data set [8] in a line: Leaching (stability) test, protective effect of VTMS shell. The class given is physicochemical. The settings on record: post-coating vs pre-coating B-805 particles; 1% SDS in water, sonicated 90 minutes. The method, then: Prior to the test, particles were dispersed in water for storage at varying concentrations. Amounts of fluid containing 50 mg of particles—a sample of pre-coating particles and a sample of post-coating particles—were weighed into 15 mL conical centrifuge tubes. The tubes were centrifuged to sediment the particles and supernatant was removed. 3 mL of 1% SDS in water was added to each tube, which were then vortexed to resuspend particles. The tubes containing the particles suspended in SDS solution were placed into a sonicated water bath for 90 minutes. The tubes were then removed and centrifuged to sediment the particles again. The supernatant was retained and filtered through a 0.2 μm syringe filter to remove any remaining particles. Absorption spectra of the supernatants was then measured on a Shimadzu 3600 UV/Vis/NIR spectrophotometer from 400-1300 nm. Molarity of colored components in the solutions and the percentage decrease of absorption between post-coating and pre-coating particles was calculated from the spectra.

Data set [9] concerns BT-20. The following applies: BT-20, ER-PR-HER2- cells; Hu et al. 2018; cited from earlier work.

As a reminder, the IC50 is the concentration at which inhibition is half-maximal. `COc1cc(/C=C/C(=O)CC(=O)/C=C/c2ccc(O)c(OC)c2)ccc1O` [Curcumin, curcumin]: the IC50 was 4.69 ± 0.06 µM in data set [1]; 18.6 ± 3.12 µM in data set [2]; 2.07 ± 0.08 µM in data set [3]; 1.32 ± 0.06 µM in data set [5]; 11.3 ± 2.13 µM in [6]; 16.2 ± 2.16 µM in data set [9]. Besides, the measured encapsulation in data set [4] amounted to 78%. In [7], the “curcumin released from the particles” value was “about 3 wt. %”. Moreover, the “reduction of leaching by VTMS shell” value in data set [8] is reported as 70%.
